Legend:
Assay type in all cases: functional
[1] = biological target: T1, Phospholipase A2, membrane associated (Homo sapiens, UniProt P14555); assay: Tested for inhibitory activity against human synovial fluid PLA2 (HSF-PLA2)
T1 sequence (P14555 whole entry): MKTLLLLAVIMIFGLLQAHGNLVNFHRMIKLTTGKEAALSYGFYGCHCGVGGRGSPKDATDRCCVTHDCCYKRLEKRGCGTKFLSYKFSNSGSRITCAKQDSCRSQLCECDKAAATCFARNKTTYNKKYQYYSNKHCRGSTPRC

Rattus norvegicus [2] = organism: Rattus norvegicus; assay: Paw volume in rat during treatment period
Rattus norvegicus [3] = assay: Paw swelling rats induced by Naja naja venom PLA2 when tested at 30 mg/kg ip; details: route intraperitoneal
[4] = Tested for inhibitory activity against purified recombinant human placental PLA2 (r-hpPLA2)

SMILES	IC50 [1] [µM]	Paw volume (Rattus norvegicus [2]) [mL]	inhibition in vivo at 30 mg/kg (Rattus norvegicus [3]) [%]	IC50 [4] [µM]
CCCCCCCCCCOc1cc(OCCCCCCCCCC)cc(C(=O)O)c1	3	–	–	–
CCCCCCCCCCOc1cc(OCCCCCCCCCC)cc(N(CC(=O)O)CC(=O)O)c1	0.23	1	41	0.087
